Structures are written as SMILES. In brackets after ≈: the same amount, converted by molar mass.

What is called IC50 is the concentration at which inhibition is half-maximal.

What all share (type): functional
Assay [1] relates to Radical scavenging activity. The experiment in a line: Antioxidant activity assessed as DPPH free radical scavenging activity at 20 ug/ml by spectrophotometry. (Loss of DPPH colour is used to gauge radical scavenging.)
For assay [2], the system named is Radical scavenging activity. The experiment in a line: Antioxidant activity assessed as DPPH free radical scavenging activity by spectrophotometry.
A short description of assay [3]: Antioxidant activity assessed as reduction of ferric ion to ferrous ion by FRAP assay.

`O=c1[nH]c2c(c(=O)[nH]1)C(c1ccc(Cl)cc1)Nc1nc3c(cc1-2)-c1[nH]c(=O)[nH]c(=O)c1C(c1ccc(Cl)cc1)N3` (stereo not drawn): the Activity in assay [1] came out at 81.1%. Also, the half-maximal inhibitory concentration (IC50) in assay [2] was 12.35 µg/mL (≈ 21.5 µM); in assay [3], 24.41 µg/mL (≈ 42.5 µM).

As to `O=c1[nH]c2c(c(=O)[nH]1)C(c1ccccc1Cl)Nc1nc3c(cc1-2)-c1[nH]c(=O)[nH]c(=O)c1C(c1ccccc1Cl)N3` (stereo not drawn), the Activity in assay [1] turned out to be 80.8%. Moreover, the IC50 in assay [2] amounted to 12.42 µg/mL (≈ 21.6 µM); in assay [3] it was 25.51 µg/mL (≈ 44.4 µM).

`O=c1[nH]c(=S)[nH]c2c1C(c1cccc([N+](=O)[O-])c1)Nc1cc3c(cc1-2)NC(c1cccc([N+](=O)[O-])c1)c1c-3[nH]c(=S)[nH]c1=O` (stereo not drawn): the Activity in assay [1] was 79.3%. Moreover, the IC50 in assay [2] came to 12.68 µg/mL (≈ 20.2 µM); in assay [3], 33.7 µg/mL (≈ 53.8 µM).

For `O=c1[nH]c2c(c(=O)[nH]1)C(c1cccc([N+](=O)[O-])c1)Nc1nc3c(cc1-2)-c1[nH]c(=O)[nH]c(=O)c1C(c1cccc([N+](=O)[O-])c1)N3` (stereo not drawn), the Activity in assay [1] was 70.2%. The IC50 in assay [2] came to 14.24 µg/mL (≈ 23.9 µM); in assay [3], 34.9 µg/mL (≈ 58.6 µM).

Turning to `O=c1[nH]c(=S)[nH]c2c1C(c1ccc([N+](=O)[O-])cc1)Nc1nc3c(cc1-2)-c1[nH]c(=S)[nH]c(=O)c1C(c1ccc([N+](=O)[O-])cc1)N3` (stereo not drawn), in assay [1], the Activity amounted to 74%. Further, the IC50 came out at 13.56 µg/mL (≈ 21.6 µM) in assay [2] and 26.25 µg/mL (≈ 41.8 µM) in assay [3].

With `O=c1[nH]c2c(c(=O)[nH]1)C(c1ccc([N+](=O)[O-])cc1)Nc1nc3c(cc1-2)-c1[nH]c(=O)[nH]c(=O)c1C(c1ccc([N+](=O)[O-])cc1)N3` (stereo not drawn), the Activity in assay [1] amounted to 74.2%. The IC50 in assay [2] worked out at 13.48 µg/mL (≈ 22.6 µM); in assay [3], 26.06 µg/mL (≈ 43.8 µM).

For `O=c1[nH]c(=S)[nH]c2c1C(c1ccccc1)Nc1nc3c(cc1-2)-c1[nH]c(=S)[nH]c(=O)c1C(c1ccccc1)N3` (stereo not drawn), the Activity in assay [1] came to 70.4%. Also, the values for the IC50 in assay [2] and in assay [3] were 14.25 µg/mL (≈ 26.5 µM) and 33.5 µg/mL (≈ 62.3 µM), respectively.

`O=c1[nH]c2c(c(=O)[nH]1)C(c1ccccc1[N+](=O)[O-])Nc1cc3c(cc1-2)NC(c1ccccc1[N+](=O)[O-])c1c-3[nH]c(=O)[nH]c1=O` (stereo not drawn): in assay [1], the Activity is 82.7%. In addition, the IC50 in assay [2] came out at 12.07 µg/mL (≈ 20.3 µM); in assay [3], 29.08 µg/mL (≈ 48.9 µM).

On to `O=c1[nH]c2c(c(=O)[nH]1)C(c1ccccc1[N+](=O)[O-])Nc1nc3c(cc1-2)-c1[nH]c(=O)[nH]c(=O)c1C(c1ccccc1[N+](=O)[O-])N3` (stereo not drawn), for which, in assay [1], the Activity is 74%. In addition, the 50% inhibitory concentration (IC50) in assay [2] turned out to be 13.56 µg/mL (≈ 22.8 µM); in assay [3], 31.39 µg/mL (≈ 52.7 µM).

Turning to `O=c1[nH]c2c(c(=O)[nH]1)C(c1ccccc1)c1ccccc1N2` (stereo not drawn), the IC50 in assay [2] was 18.91 µg/mL (≈ 64.9 µM).

Regarding `O=c1[nH]c2c(c(=O)[nH]1)C(c1ccccc1)Nc1nc3c(cc1-2)-c1[nH]c(=O)[nH]c(=O)c1C(c1ccccc1)N3` (stereo not drawn), in assay [1], the Activity came to 70.6%. The IC50 in assay [2] is 14.21 µg/mL (≈ 28.1 µM); in assay [3], 33.91 µg/mL (≈ 67.1 µM).

As for `O=c1[nH]c2c(c(=O)[nH]1)C(c1ccc([N+](=O)[O-])cc1)Nc1cc3c(cc1-2)NC(c1ccc([N+](=O)[O-])cc1)c1c-3[nH]c(=O)[nH]c1=O` (stereo not drawn), the Activity in assay [1] was 80.9%. Besides, the IC50 in assay [2] was found to be 12.44 µg/mL (≈ 20.9 µM); in assay [3], 25.01 µg/mL (≈ 42.1 µM).

Consider `O=c1[nH]c(=S)[nH]c2c1C(c1ccc(Cl)cc1)Nc1cc3c(cc1-2)NC(c1ccc(Cl)cc1)c1c-3[nH]c(=S)[nH]c1=O` (stereo not drawn), for which the Activity in assay [1] was determined as 84.4%. Besides, the half-maximal inhibitory concentration (IC50) worked out at 11.93 µg/mL (≈ 19.7 µM) in assay [2] and 24.11 µg/mL (≈ 39.8 µM) in assay [3].

As to `O=c1[nH]c2c(c(=O)[nH]1)C(c1ccccc1Cl)Nc1cc3c(cc1-2)NC(c1ccccc1Cl)c1c-3[nH]c(=O)[nH]c1=O` (stereo not drawn), in assay [1], the Activity came to 84%. Also, the IC50 in assay [2] was 12.05 µg/mL (≈ 21 µM); in assay [3] it was 24.01 µg/mL (≈ 41.9 µM).

In the case of `O=c1[nH]c2c(c(=O)[nH]1)C(c1cccc([N+](=O)[O-])c1)Nc1cc3c(cc1-2)NC(c1cccc([N+](=O)[O-])c1)c1c-3[nH]c(=O)[nH]c1=O` (stereo not drawn), in assay [1], the Activity was determined as 81.7%. Also, the IC50 in assay [2] is 12.39 µg/mL (≈ 20.8 µM); in assay [3], 33.28 µg/mL (≈ 56 µM).

`O=c1[nH]c2c(c(=O)[nH]1)C(c1ccccc1)Nc1cc3c(cc1-2)NC(c1ccccc1)c1c-3[nH]c(=O)[nH]c1=O` (stereo not drawn): the Activity in assay [1] was determined as 82%. Also, the IC50 was determined as 12.15 µg/mL (≈ 24.1 µM) in assay [2] and 32.76 µg/mL (≈ 64.9 µM) in assay [3].

As for `O=c1[nH]c(=S)[nH]c2c1C(c1ccccc1[N+](=O)[O-])Nc1nc3c(cc1-2)-c1[nH]c(=S)[nH]c(=O)c1C(c1ccccc1[N+](=O)[O-])N3` (stereo not drawn), in assay [1], the Activity amounted to 73.6%. Moreover, the IC50 in assay [2] is 13.6 µg/mL (≈ 21.7 µM); in assay [3], 30.47 µg/mL (≈ 48.5 µM).

For the molecule `O=c1[nH]c(=S)[nH]c2c1C(c1ccccc1Cl)Nc1nc3c(cc1-2)-c1[nH]c(=S)[nH]c(=O)c1C(c1ccccc1Cl)N3` (stereo not drawn), the Activity in assay [1] was 80.6%. Besides, the concentration for half-maximal inhibition (IC50) in assay [2] was determined as 12.41 µg/mL (≈ 20.5 µM); in assay [3] it was 25.07 µg/mL (≈ 41.3 µM).

With `O=c1[nH]c(=S)[nH]c2c1C(c1ccccc1)Nc1cc3c(cc1-2)NC(c1ccccc1)c1c-3[nH]c(=S)[nH]c1=O` (stereo not drawn), the Activity in assay [1] came to 79.6%. Besides, the values for the IC50 in assay [2] and in assay [3] were 12.62 µg/mL (≈ 23.5 µM) and 32.1 µg/mL (≈ 59.8 µM), respectively.

With `O=c1[nH]c(=S)[nH]c2c1C(c1ccc([N+](=O)[O-])cc1)Nc1cc3c(cc1-2)NC(c1ccc([N+](=O)[O-])cc1)c1c-3[nH]c(=S)[nH]c1=O` (stereo not drawn), in assay [1], the Activity stood at 82.3%. Also, the 50% inhibitory concentration (IC50) is 12.17 µg/mL (≈ 19.4 µM) in assay [2] and 25.21 µg/mL (≈ 40.2 µM) in assay [3].

Turning to `O=c1[nH]c(=S)[nH]c2c1C(c1ccc(Cl)cc1)Nc1nc3c(cc1-2)-c1[nH]c(=S)[nH]c(=O)c1C(c1ccc(Cl)cc1)N3` (stereo not drawn), the Activity in assay [1] was found to be 80.9%. Further, the IC50 in assay [2] worked out at 12.36 µg/mL (≈ 20.4 µM); in assay [3] it was 25 µg/mL (≈ 41.2 µM).

On to `O=c1[nH]c(=S)[nH]c2c1C(c1ccccc1Cl)Nc1cc3c(cc1-2)NC(c1ccccc1Cl)c1c-3[nH]c(=S)[nH]c1=O` (stereo not drawn), for which the Activity in assay [1] came out at 84.1%. Besides, the IC50 was 11.99 µg/mL (≈ 19.8 µM) in assay [2] and 24.46 µg/mL (≈ 40.4 µM) in assay [3].

Consider `O=c1[nH]c2c(c(=O)[nH]1)C(c1ccc(Cl)cc1)Nc1cc3c(cc1-2)NC(c1ccc(Cl)cc1)c1c-3[nH]c(=O)[nH]c1=O` (stereo not drawn), for which the Activity in assay [1] came out at 85.2%. Also, the half-inhibitory concentration (IC50) in assay [2] was determined as 11.8 µg/mL (≈ 20.6 µM); in assay [3] it was 23.21 µg/mL (≈ 40.5 µM).

Turning to `O=c1[nH]c(=S)[nH]c2c1C(c1ccccc1[N+](=O)[O-])Nc1cc3c(cc1-2)NC(c1ccccc1[N+](=O)[O-])c1c-3[nH]c(=S)[nH]c1=O` (stereo not drawn), the Activity in assay [1] came to 82%. The IC50 came to 12.15 µg/mL (≈ 19.4 µM) in assay [2] and 29.5 µg/mL (≈ 47.1 µM) in assay [3].

As for `O=c1[nH]c(=S)[nH]c2c1C(c1cccc([N+](=O)[O-])c1)Nc1nc3c(cc1-2)-c1[nH]c(=S)[nH]c(=O)c1C(c1cccc([N+](=O)[O-])c1)N3` (stereo not drawn), in assay [1], the Activity was 70.1%. Besides, the IC50 came to 14.34 µg/mL (≈ 22.8 µM) in assay [2] and 34.93 µg/mL (≈ 55.7 µM) in assay [3].

The record behind these values is ChEMBL document CHEMBL2396516, “Synthesis of novel bis(pyrimido[5,4-c]quinoline-2,4(1H,3H)-dione) and its derivatives: evaluation of their antioxidant properties” (Bioorg Med Chem Lett, 2013).
